According to US20220370385A1, “COMPOSITIONS FOR USE IN INHIBITING SRC KINASE AND TREATING AND PREVENTING ASSOCIATED DISORDERS” (Enzene Biosciences Ltd., priority 2019, published 2022):

Legend:
[1] = Maximum tolerated dose study, oral gavage; assay type: in vivo; conditions: single oral gavage
Experimental: A maximum tolerated dose (MTD) study was carried out with E05. In MTD study, group of 3 male and 3 female rats were dosed at 175 (group 1), 550 (group 2), 1750 (group 3) and 2000 (group 4) mg/kg b. wt.

[2] = Pharmacokinetic study after single oral administration; assay type: in vivo; conditions: Sprague Dawley, rat, plasma, male rats
Experimental: A study to determine the pharmacokinetics of E05 after single oral (10 mg/kg) administration in male Sprague Dawley rats was carried out. […] The absolute oral bioavailability of Small molecule was 80% (FIG. 18).

SMILES: O=C(O)CCc1ccc(O)c(O)c1 [E05, 3-(3,4-Dihydroxyphenyl) propanoic acid]
- Mortality on Experimental Day 1 ([1]; Female G1 175 mg/kg b. wt.): 0
- Mortality on Experimental Day 2 ([1]; Female G1 175 mg/kg b. wt.): 0
- Mortality on Experimental Day 3 ([1]; Female G1 175 mg/kg b. wt.): 0
- Mortality on Experimental Day 4 ([1]; Female G1 175 mg/kg b. wt.): 0
- Morbidity on Experimental Day 1 ([1]; Female G2 550 mg/kg b. wt.): 0
- Morbidity on Experimental Day 2 ([1]; Female G2 550 mg/kg b. wt.): 0
- Morbidity on Experimental Day 3 ([1]; Female G2 550 mg/kg b. wt.): 0
- Morbidity on Experimental Day 4 ([1]; Female G2 550 mg/kg b. wt.): 0
- Mortality on Experimental Day 1 ([1]; Female G2 550 mg/kg b. wt.): 0
- Mortality on Experimental Day 2 ([1]; Female G2 550 mg/kg b. wt.): 0
- Mortality on Experimental Day 3 ([1]; Female G2 550 mg/kg b. wt.): 0
- Mortality on Experimental Day 4 ([1]; Female G2 550 mg/kg b. wt.): 0
- Morbidity on Experimental Day 1 ([1]; Female G3 1750 mg/kg b. wt.): 0
- Morbidity on Experimental Day 2 ([1]; Female G3 1750 mg/kg b. wt.): 0
- Morbidity on Experimental Day 3 ([1]; Female G3 1750 mg/kg b. wt.): 0
- Morbidity on Experimental Day 4 ([1]; Female G3 1750 mg/kg b. wt.): 0
- Mortality on Experimental Day 1 ([1]; Female G3 1750 mg/kg b. wt.): 0
- Mortality on Experimental Day 2 ([1]; Female G3 1750 mg/kg b. wt.): 0
- Mortality on Experimental Day 3 ([1]; Female G3 1750 mg/kg b. wt.): 0
- Mortality on Experimental Day 4 ([1]; Female G3 1750 mg/kg b. wt.): 0
- Morbidity on Experimental Day 1 ([1]; Female G4 2000 mg/kg b. wt.): 0
- Morbidity on Experimental Day 2 ([1]; Female G4 2000 mg/kg b. wt.): 0
- Morbidity on Experimental Day 3 ([1]; Female G4 2000 mg/kg b. wt.): 0
- Morbidity on Experimental Day 4 ([1]; Female G4 2000 mg/kg b. wt.): 0
- Mortality on Experimental Day 1 ([1]; Female G4 2000 mg/kg b. wt.): 0
- Mortality on Experimental Day 2 ([1]; Female G4 2000 mg/kg b. wt.): 0
- Mortality on Experimental Day 3 ([1]; Female G4 2000 mg/kg b. wt.): 0
- Mortality on Experimental Day 4 ([1]; Female G4 2000 mg/kg b. wt.): 0
- Morbidity on Experimental Day 1 ([1]; Male G1 175 mg/kg b. wt.): 0
- Morbidity on Experimental Day 2 ([1]; Male G1 175 mg/kg b. wt.): 0
- Morbidity on Experimental Day 3 ([1]; Male G1 175 mg/kg b. wt.): 0
- Morbidity on Experimental Day 4 ([1]; Male G1 175 mg/kg b. wt.): 0
- Mortality on Experimental Day 1 ([1]; Male G1 175 mg/kg b. wt.): 0
- Mortality on Experimental Day 2 ([1]; Male G1 175 mg/kg b. wt.): 0
- Mortality on Experimental Day 3 ([1]; Male G1 175 mg/kg b. wt.): 0
- Mortality on Experimental Day 4 ([1]; Male G1 175 mg/kg b. wt.): 0
- Morbidity on Experimental Day 1 ([1]; Male G2 550 mg/kg b. wt.): 0
- Morbidity on Experimental Day 2 ([1]; Male G2 550 mg/kg b. wt.): 0
- Morbidity on Experimental Day 3 ([1]; Male G2 550 mg/kg b. wt.): 0
- Morbidity on Experimental Day 4 ([1]; Male G2 550 mg/kg b. wt.): 0
- Mortality on Experimental Day 1 ([1]; Male G2 550 mg/kg b. wt.): 0
- Mortality on Experimental Day 2 ([1]; Male G2 550 mg/kg b. wt.): 0
- Mortality on Experimental Day 3 ([1]; Male G2 550 mg/kg b. wt.): 0
- Mortality on Experimental Day 4 ([1]; Male G2 550 mg/kg b. wt.): 0
- Morbidity on Experimental Day 1 ([1]; Male G3 1750 mg/kg b. wt.): 0
- Morbidity on Experimental Day 2 ([1]; Male G3 1750 mg/kg b. wt.): 0
- Morbidity on Experimental Day 3 ([1]; Male G3 1750 mg/kg b. wt.): 0
- Morbidity on Experimental Day 4 ([1]; Male G3 1750 mg/kg b. wt.): 0
- Mortality on Experimental Day 1 ([1]; Male G3 1750 mg/kg b. wt.): 0
- Mortality on Experimental Day 2 ([1]; Male G3 1750 mg/kg b. wt.): 0
- Mortality on Experimental Day 3 ([1]; Male G3 1750 mg/kg b. wt.): 0
- Mortality on Experimental Day 4 ([1]; Male G3 1750 mg/kg b. wt.): 0
- Morbidity on Experimental Day 1 ([1]; Male G4 2000 mg/kg b. wt.): 0
- Morbidity on Experimental Day 2 ([1]; Male G4 2000 mg/kg b. wt.): 0
- Morbidity on Experimental Day 3 ([1]; Male G4 2000 mg/kg b. wt.): 0
- Morbidity on Experimental Day 4 ([1]; Male G4 2000 mg/kg b. wt.): 0
- Mortality on Experimental Day 1 ([1]; Male G4 2000 mg/kg b. wt.): 0
- Mortality on Experimental Day 2 ([1]; Male G4 2000 mg/kg b. wt.): 0
- Mortality on Experimental Day 3 ([1]; Male G4 2000 mg/kg b. wt.): 0
- Mortality on Experimental Day 4 ([1]; Male G4 2000 mg/kg b. wt.): 0
- bioavailability ([2]; oral 10 mg/kg, read-out: absolute oral bioavailability): 80%
- AUC(0-t) ([2]; single oral gavage 10 mg/kg): 151 ng·h/mL
- Cmax ([2]; single oral gavage 10 mg/kg): 306 ng/mL
- Tmax ([2]; single oral gavage 10 mg/kg, read-out: mean time to reach peak plasma concentration (Tmax)): 15 min
